# Values joined by “and” are separate entries in the source; they are usually repeats but may differ in a detail not shown here. Equal entries are not always repeated.
# Legend:
# [1] = system: Huh7.5 cells; experiment: Spread of infection in culture, anti-Core immunostaining; format: cell-based; conditions: after transfection into Huh7.5 cells
# Description: (§1) Culturing of Huh7.5 cells was done as described by Gottwein et al. 2007. One day prior to transfection or infection, naïve Huh7.5 cells were plated at 4×10^5/well in 6-well plates. In vitro transcription was carried out for 2 hours with T7 RNA polymerase (Promega) on 5 μg plasmid linearized with XbaI and treated with Mung Bean Nuclease (New England Biolabs, Beverly, Mass., USA) to yield the exact HCV 3′ end. For transfection, 2.5 μg of unpurified RNA transcripts were incubated with 5 μL Lipofectamine2000™ (Invitrogen) in 500 μL Opti-MEM (Invitrogen) for 20 min at room temperature. RNA-Lipofectamine2000™ transfection complexes were left on cells for 16-24 hours before washing. For infection, virus-containing supernatant was left on cells for 6-24 hours. Supernatants collected during experiments were sterile filtered and stored at −80° C.
# (§2) Anti-Core immunostaining was done with mouse anti-HCV Core protein monoclonal antibody (B2) (Anogen Mississauga, Ontario, Canada) as primary antibody and Alexa Fluor 594 goat anti-mouse IgG (H+L) (Invitrogen) as secondary antibody. HCV RNA titers were determined by a TaqMan™ real-time PCR assay. Infectivity titers were determined as follows: 6×10^3 naïve Huh7.5 cells were plated per well in a poly-D-lysine coated 96-well plate (Nunc) one day before inoculation with three replicates of individual 10-fold dilutions of cell culture supernatants. Inocula were left on cells for 48 hours and cells were fixed using ice could methanol. After washing, blocking buffer (1% BSA, 0.2% skim milk) was added for 20 min and endogenous peroxidases were inhibited by application of H2O2 for 5 min. Primary antibody (anti-NS3, clone H26, Abcam, Cambridge, UK) diluted 1:1000 was left on cells for 3-4 days. Secondary antibody was ECL anti-mouse IgG HRP-linked whole antibody (GE Healthcare Amersham, Brondby, Denmark). Staining was developed using DAB substrate kit (DAKO, Glostrup, Denmark). The number of focus-forming units (FFU) per well were counted manually (dilutions with 5-100 FFU counted) or automatically. Automatic counting was performed on an ImmunoSpot Series 5 UV Analyzer™ (CTL Europe GmbH, Aalen, Baden-Württemberg, DE) with customized software. From FFU counts in experimental wells, the mean of spot counts of negative control wells was subtracted (typically around 5 spots).
# [2] = system: Huh7.5 cells; experiment: Infectivity titers (FFU) in supernatant after RNA transfection or viral passage; format: cell-based; conditions: for 1st passage Log(FFU/mL) / Transfection Log(FFU/mL): Table 1b; for 1st passage Log(FFU/mL): maximum infectivity titer, two values separated by slash = two independent passages; for Transfection Log(FFU/mL): maximum infectivity titer after transfection, Core-NS2 and NS5A of same genotype; for Peak titers Transfection Log (FFUs/mL) / Peak titers Viral passage Log (FFUs/mL): Table 2; for Peak titers Transfection Log (FFUs/mL): maximum infectivity titer observed in transfection experiments; for Peak titers Viral passage Log (FFUs/mL): maximum infectivity titer observed in viral passage experiments
# Description: (§3) To determine the efficiency of the developed system, HCV RNA titers are determined in IU/ml (international units/ml) with Taq-Man Real-Time-PCR and infectious titers are determined with a focus-forming units (FFU) method: in this method, infectivity titers are determined by infection of cell culture replicates with serial dilutions of virus containing supernatants and, following immuno-stainings for HCV antigens, counting of HCV-antigen positive cell foci. Alternatively the infectious titers are determined as 50% tissue culture infectious dose.
# as §1, §2
# [3] = system: Huh7.5 cells; experiment: HCV RNA titers by TaqMan real-time PCR; format: cell-based; conditions: Table 1b; maximum HCV RNA titer; two values separated by slash = two independent passages
# Description: as §3, §2
# [4] = system: Huh7.5 cells; experiment: Genetic stability, direct sequencing of complete ORF after passage; conditions: Table 2; ORF sequenced after passage to naïve cells
# Description: RNA was extracted from cell culture supernatant using (Highly Pure Viral Nucleic Acid Kit™, Roche, Mannheim, Del.). RT-PCR was done using SuperScriptIII™ (Invitrogen, Carlsbad, Calif., USA). In 1st round PCR the Advantage 2 PCR Enzyme System was used. Cycle parameters were 35 s at 99° C., 30 s at 67° C. and 10 min (cycle 1-5), 11 min (cycle 6-15), 12 min (cycle 16-25) or 13 min (cycle 26-35) at 68° C. 12˜1 kb products were synthesized in overlapping nested PCRs covering the entire ORF using primer pairs as previously described. Primer pairs 8, 9 and 10 were modified to the genotype specific NS5A sequence (Table 20, SEQ ID NO 163-192). Cycle parameters were 35 s at 99° C. followed by 35 cycles with 35 s at 99° C., 30 s at 67° C. and 6 min at 68° C.
# All sequence reactions were performed at Macrogen Inc., Seoul, South Korea. Sequence analysis was performed with Sequencher™ (Gene Codes Corporation) Vector NTI 11 (Invitrogen) and BioEdit™ (Tom Hall, Ibis Therapeutics). HCV sequences were retrieved from the European HCV database (euHCVdb; at the http: internet location //euhcvdb.ibcp.fr/euHCVdb/) and the Los Alamos HCV sequence database (LANL; at the http: Internet location //hcv.lanl.gov/content/hcv-db/index).
# Genetic stability of NS5A recombinants after passage to naïve cells. Supernatant samples from transfection culture were passaged to naïve Huh7.5 cells and the complete ORF was sequenced after spread of infection in culture to check for further need of adaptation.
Substance,spread / replication in culture [1],1st passage Log(FFU/mL) [2],Transfection Log(FFU/mL) [2],Peak titers Transfection Log (FFUs/mL) [2],Peak titers Viral passage Log (FFUs/mL) [2],1st passage Log(IU/mL) [3],Genetically stable [4]
"ED43/JFH1(ED43-NS5A): ED43 Core-NS2/NS5A recombinant without mutations adaptive for ED43/JFH1, SEQ ID NO 51",never spread in culture,,,,,,
"J4/JFH12996, 4827(J4-NS5A): JFH1-based recombinant with Core-NS2 and NS5A of genotype 1b J4, SEQ ID NO 47",,1.0 Log(FFU/mL) and 1.3 Log(FFU/mL),,,,,
"HK6a/JFH11389, 1590(HK6a-NS5A)7161: HK6a Core-NS2/NS5A recombinant with T7161A, SEQ ID NO 57",,3.3 Log(FFU/mL),2.7 Log(FFU/mL),2.7 Log (FFUs/mL),3.3 Log (FFUs/mL),,
"S52/JFH12718, 4550(S52-NS5A): JFH1-based recombinant with Core-NS2 and NS5A of genotype 3a S52, SEQ ID NO 49",,3.1 Log(FFU/mL),2.1 Log(FFU/mL) and 2.4 Log(FFU/mL),,,7.0 Log(IU/mL),
"S52/JFH12718, 4550(S52-NS5A)7625: S52 Core-NS2/NS5A recombinant with T7625C, SEQ ID NO 50",,3.8 Log(FFU/mL),2.9 Log(FFU/mL),2.9 Log (FFUs/mL),3.8 Log (FFUs/mL),,Yes
"J4/JFH12996, 4827(J4-NS5A)3893: J4 Core-NS2/NS5A recombinant with T3893A, SEQ ID NO 48",,<2.3 Log(FFU/mL),2.5 Log(FFU/mL),2.5 Log (FFUs/mL),<2.3 Log (FFUs/mL),,Yes
